Experimental data from US7622438B1, “Protein formulation for promoting hard tissue formation” (Acologix, Inc., priority 2005, dated 2009).
“Also recorded” adds a separate entry of the source.

Columns and labels:
[1] = test system: dorsal muscle of mice (ICR); test: Ectopic bone formation from polymer pellets implanted in mouse dorsal muscle; assay type: in vivo
Excerpt: The mice were sacrificed 3 weeks later and the newly formed bones were isolated for evaluation using soft X-ray radiograph and bone mineral density determination.

COX-2 [2] = test: Gene expression microarray analysis in Clonetics hMSC cells (COX-2 mRNA); assay type: cell-based, human; details: for COX-2 mRNA increase: 1000 ng/ml peptide
Procedure: Materials and Methods: The effect of the peptide of SEQ ID No. 8 treatment on gene expression was assessed in the Clonetics hMSC cells using gene expression microarray analysis as previously described (Locklin et al., 2001). Briefly, cells were plated in five T-150 vented flasks at a density of 1.0×10^6 cells per flask in growth medium and cultured at 37° C. for 48 hours. Flasks containing either vehicle alone or the peptide of SEQ ID No. 8 (1000 ng/ml) were cultured for 24 hr or for 48 h in standard differentiation medium. At each time point, the vehicle and treatment flasks were trypsinized, cells removed and total RNA was extracted for analysis via the Qiagen Rneasy Kit (Qiagen). 8 μg of total RNA were amplified and biotin labeled. The mixture was hybridized to a U95A human gene expression microarray (Affymetrix) containing probes for 12,600 human genes. The chips were then washed, stained with phycoerythrin-streptavidin and read with an Affymetrix scanner. Hybridization intensity values to mRNA frequency were calculated in molecules per million. Analysis of intensity values was conducted using Spotfire Decision Site (Somerville, Mass.) software.

[3] = test system: primary osteoblasts collected from fetal mouse calvaria; test: Alkaline phosphatase (ALP) activity in primary osteoblasts under suboptimal BMP-2; assay type: cell-based
Procedure: The peptide of SEQ ID No. 8 was added to this culture system at 0, 0.2, 0.4, 1.0, 2.0, and 4.0 μM. The levels of ALP were evaluated on days 0, 3, and 7.

COX-2 [4] = details: Nagel et al., Journal of Cellular Biochemistry, 2004; cited from earlier work
[5] = test system: hemi-calvariae from 4 day old Swiss Webster mice; details: Middleton-Hardie et al., ASBMR 2005; cited from earlier work
[6] = test system: hard tissue forming cells; test: General activity statements on hard tissue forming cells
human mesenchymal cells = test: PGE2 in human mesenchymal cells in culture; assay type: cell-based; details: peptide alone
[7] = test system: hemi-calvariae from 4 day old Swiss Webster mice; test: Mouse calvaria organ culture assay (PGE2, new bone formation histology); assay type: cell-based; details: peptide 1, 10, 100 μg/mL daily for seven days
Excerpt: Methods: Calvarial organ cultures have been used for many years to study the regulation of bone formation and bone resorption. An advantage of this method compared to in vivo studies is the absence of confounding effects (such as hormonal and mechanical influences) meaning a more direct effect of the test substances on bone tissue can be determined. Also compared to isolated cell systems, interrelationships between the different cell types in the bone and between these cells and the bone matrix are preserved.
Briefly, hemi-calvariae were isolated from 4 day old Swiss Webster mice and incubated in media on steel mesh grids. The peptide of SEQ ID NO. […] Samples of the conditioned media were collected daily for analysis of PGE2 concentration (R&D Systems ELISA kit). At the end of the culture the bones were analyzed for new bone formation and number of osteoblasts using histology.

Smad1/5/8 = test: Phosphorylation of Smad1/5/8 by Western blotting in primary osteoblasts; assay type: cell-based, mouse; details: 2 uM peptide added to 25 ng/mL BMP-2; FIG. 3
Procedure: Phosphorylation of Smad1/5/8 was evaluated by Western blotting at 0, 0.5, 1, 2, 12, 24, 48 and 72 hours.

[8] = test system: MC3T3-E1 subclone 4 cells; test: BMP-2 stimulated PGE2 production by MC3T3 cells (ELISA); assay type: cell-based, mouse; details: suboptimal rhBMP-2 plus varying doses of peptide, 24 hours; FIG. 2
Procedure: Methods: MC3T3-E1 subclone 4 cells are neonatal mouse derived calvarial preosteoblasts with fibroblast morphology. […] For this experiment the MC3T3 cells were plated 10^5 cells per well in 24 well plates in growth medium (alpha MEM+1 mM sodium pyruvate+10% fetal bovine serum (FBS)). After 24 hours of culture the media was removed and replaced with assay media (alphaMEM+1 mM sodium pyruvate+2% FBS) containing the test substances. Each test group utilized 4 wells. After incubation for a further 24 hours the media was removed and the levels of PGE2 were determined using an ELISA (R&D Systems).

[9] = 2 μM peptide with 25 ng/mL BMP-2

## TDLQERGDNDISPFSGDGQPFKD [SEQ ID No. 8]
[1]; 3 ug BMP-2 in 30 mg polymer, peptide 0-1250 ug, three weeks
  enhancement of the BMP-2 effects on bone formation (size and mineral density of ectopic ossicles): significant enhancement
[1]; 5 ug BMP-2 in 30 mg polymer, peptide 0-1250 ug, three weeks
  efficacy of the peptide on bone formation (size and mineral density of ectopic ossicles): unclear
[1]; peptide added to suboptimal dose, 3 μg of rhBMP-2
  increase in bone formation: significant and dose dependent increase
COX-2 [2]; 24 h
  COX-2 mRNA increase: 3.6 fold
COX-2 [2]; 48 h
  COX-2 mRNA increase: 2.2 fold
COX-2 [2]; discussion summary of both time points
  mRNA for cyclooxygenase-2 (COX-2) increase, summary: ~3 fold
[3]; [9]
  ALP activity increase as compared with BMP-2 treated cells without addition of the peptide: ~2 times
  ALP activity increase as compared with the control group: about 3 times
[3]; BMP-2 (suboptimal, 25 ng/mL) plus peptide 0.2-4.0 μM, FIG. 1
  ALP activity in osteoblastic cells: significantly increased; also recorded: dose dependent upregulation
COX-2 [4]
  COX-2 in human mesenchymal stem cells: upregulated
[5]
  production of PGE2 in mouse calvaria organ culture assay: dose dependently upregulated
[6]
  biological activities for the purpose of this invention, relative ranking: highest activities
Human mesenchymal cells
  increase in PGE2: did not result in a significant increase
[7]; FIG. 4
  PGE2 production: significant increases
[7]; FIG. 5
  bone cell density: significant increases
  new bone formation: significant increases
  osteoblast surface: significant increases
Smad1/5/8
  time over which phosphorylation of Smad1/5/8 was detectable: 0.5 to 48 h
[8]
  BMP-2 induced PGE2 production: increases; also recorded: dose dependent production
